# Reference: ChEMBL document CHEMBL1133308, “A novel inhibitor of human telomerase derived from 10H-indolo[3,2-b]quinoline” (Bioorg Med Chem Lett, 2000)
# Columns and labels:
# [1] = target: Telomerase reverse transcriptase (Homo sapiens, UniProt O14746); test: Inhibitory activity against human ovarian cancer cell (A2780 cells) Telomerase; type: cell-based
# [2] = Compound was evaluated for cytotoxicity against human ovarian cancer cell CHI R; type: functional, cell-based; conditions: Cancer cell lines
# [3] = Compound was evaluated for cytotoxicity against human ovarian cancer cell SKOV-3; type: functional, cell-based; conditions: Cancer cell lines
# [4] = Compound was evaluated for cytotoxicity against human ovarian cancer cell A2780R.; type: functional, cell-based; conditions: Cancer cell lines
# [5] = Compound was evaluated for cytotoxicity against human ovarian cancer cell A2780; type: functional, cell-based; conditions: Cancer cell lines
# [6] = Compound was evaluated for cytotoxicity against human ovarian cancer cell CHI; type: functional, cell-based; conditions: Cancer cell lines
# Telomerase reverse transcriptase, sequence (O14746 whole entry): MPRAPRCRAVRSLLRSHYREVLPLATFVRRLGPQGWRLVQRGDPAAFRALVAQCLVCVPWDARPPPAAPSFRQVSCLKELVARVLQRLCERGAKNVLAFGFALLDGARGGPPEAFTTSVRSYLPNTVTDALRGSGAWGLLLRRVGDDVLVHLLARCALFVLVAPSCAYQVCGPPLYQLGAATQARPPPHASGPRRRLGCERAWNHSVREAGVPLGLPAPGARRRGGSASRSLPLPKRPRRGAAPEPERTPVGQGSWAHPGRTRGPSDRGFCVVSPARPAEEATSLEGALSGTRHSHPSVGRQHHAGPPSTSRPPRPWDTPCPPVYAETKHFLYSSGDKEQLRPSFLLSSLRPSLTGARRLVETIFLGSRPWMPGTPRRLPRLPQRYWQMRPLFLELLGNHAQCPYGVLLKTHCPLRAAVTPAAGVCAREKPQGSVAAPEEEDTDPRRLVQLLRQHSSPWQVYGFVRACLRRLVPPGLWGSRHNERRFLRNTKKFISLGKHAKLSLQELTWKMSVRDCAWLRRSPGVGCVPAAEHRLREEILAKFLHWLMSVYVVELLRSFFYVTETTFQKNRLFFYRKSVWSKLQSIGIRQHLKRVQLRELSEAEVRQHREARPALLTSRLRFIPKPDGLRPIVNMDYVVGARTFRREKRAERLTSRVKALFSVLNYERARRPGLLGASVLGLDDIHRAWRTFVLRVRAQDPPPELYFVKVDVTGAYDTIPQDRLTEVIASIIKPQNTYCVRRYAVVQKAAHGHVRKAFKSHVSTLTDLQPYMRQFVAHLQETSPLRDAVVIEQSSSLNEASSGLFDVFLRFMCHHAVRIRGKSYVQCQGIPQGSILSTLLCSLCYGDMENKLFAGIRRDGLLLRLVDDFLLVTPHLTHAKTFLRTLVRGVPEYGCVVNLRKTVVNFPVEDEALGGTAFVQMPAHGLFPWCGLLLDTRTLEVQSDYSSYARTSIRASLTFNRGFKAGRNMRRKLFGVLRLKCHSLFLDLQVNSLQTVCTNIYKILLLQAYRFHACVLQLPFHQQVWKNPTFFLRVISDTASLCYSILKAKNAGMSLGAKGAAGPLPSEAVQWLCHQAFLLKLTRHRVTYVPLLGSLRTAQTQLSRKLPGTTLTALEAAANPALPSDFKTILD
IC50 [1],Compound,IC50 [2],IC50 [3],IC50 [4],IC50 [5],IC50 [6]
16 µM,CN(C)CCc1ccc2nc3c4ccccc4n(CCN(C)C)c3cc2c1,12.5 µM,6.3 µM,10.5 µM,12.5 µM,8.4 µM
7 µM,CCN(CC)CCOc1ccc2c(c1)OC1C(=O)c3ccccc3C(=O)C21 (stereo not given),,3.6 µM,,0.15 µM,0.18 µM
,c1ccc2nc3c(cc2c1)[nH]c1ccccc13 [QUINDOLINE],30 µM,66 µM,24.5 µM,21.5 µM,15.5 µM
